Source: patent US5552267A, “Solution for prolonged organ preservation” (priority 1994, dated 1996)

Columns and labels:
[1] = system: cardiac graft vasculature; assay: perfusion of donor grafts by microspheres, nitric oxide series; type: in vivo, rat; settings: 12 h preservation in LR
Protocol: Ten minutes after restoration of blood flow, 0.5 ml of 10 μm diameter microspheres (10^6 /ml) (E-Z Trac, Los Angeles, Calif.) was injected into the donor aortic root. Deposition of microspheres in ventricular tissue was assessed following alkaline hydrolysis, washing, and counting of microspheres as described^8, with results expressed as number of spheres per (40×) field per gram of ventricle. A minimum of ten fields were counted and the mean ±SEM is reported.

heart = assay: heterotopic rat cardiac transplant, nitric oxide series, graft survival/score; type: in vivo, rat (male Sprague-Dawley); settings: for graft survival: NTG 0.1 mg/ml where added
Source text: Male Sprague-Dawley rats (350 grams, Camm Research, Wayne, N.J.) were used, and harvest, preservation, and transplantation procedures performed as described^8. Preservation solutions included lactated Ringer's (LR) solution (Baxter, Edison, N.J.), or LR supplemented with nitroglycerin (DuPont, Wilmington, Del.), sodium nitroprusside (Roche Laboratories, Nutley, N.J.), N^G -monomethyl-L-arginine (L-NMMA; Chembiochem, Salt Lake City, Utah), L-arginine (Sigma Chemical Co., St. Louis, Mo.), or 8-bromoguanosine3',5'monophosphate (8-Br-cGMP; Sigma). Components were combined within 4 hrs of donor cardiectomy, and preservation solutions were kept at 4° C. All of these solutions were at the pH of LR (6.6). University of Wisconsin solution (UW) was purchased from Dupont. […] Ten minutes after removal of the cross-clamp, an electrocardiogram was taken (Grass Polygraph, Quincy, Mass.) and the heart was judged by the same blinded investigators throughout based on the presence/absence of regular contractions and a transplant score (0-5, worst-best, respectively) employing the following criteria: contraction (poor=0, average=1, vigorous=2), tissue turgor (hard=0, average=1, soft=2), and color (dusky=0, pink=1).
Graft survival data was analyzed by contingency analysis (chi-square). Transplant scores, microsphere perfusion, myeloperoxidase, NO synthase, and platelet serotonin release data were analyzed using ANOVA for unpaired variables with the Tukey test used to discriminate significant differences between group means. Values are expressed as means ±SEM, with a p<0.05 considered statistically significant.

lung = assay: orthotopic rat left lung transplantation, nitroglycerin series; type: in vivo, rat (male Lewis)
nitric oxide synthase = assay: cardiac nitric oxide synthase activity (L-arginine to L-citrulline conversion); type: biochemical, rat; settings: LR with vs without supplement, 12 h
Protocol: Hearts were either freshly explanted, preserved, or preserved/transplanted (with 10 min. of reperfusion), after which they were excised. The coronary arteries were flushed with physiologic saline, the atria and great vessels excised, and the ventricular cavities rinsed free of residual intracavitary blood. Samples were flash-frozen in liquid nitrogen and stored at -80° C. until the time of assay. Extracts were prepared by homogenizing tissue at 4° C. in the presence of protease inhibitors (aprotinin, epsilon amino caproic acid, PMSF, pepstatin A, and chymostatin), and centrifuging (20,000 rpm×20 min) to remove cellular debris. The extract (20 μg of protein by the method of Lowry^15) was incubated for 60 min. in the presence of CaCl2 (10 μM), FAD (8 μM), dithiothreitol (60 μM)(Sigma), tetrahydrobiopterin (8 μM; B. Schirks, Switzerland), and ^3 H-L-arginine (0.072 μM, 5 μCi;, Amersham, Arlington Heights, Ill.). Thin layer chromatography (TLC) was performed with 5 μl of the reaction mix, using methanol:chloroform:water:ammonium hydroxide (9:2:8:3) as the running solvent. Silica gel TLC plates (Sigma) were stained with ninhydrin (1 g/500 ml ethanol) and the spots corresponding to L-arginine, L-ornithine, and L-citrulline cut out and counted. […] Results are expressed as the mean ±SEM of 3 determinations.

[2] = system: nitric oxide in expired air; settings: in vivo; cited from earlier work
[3] = system: platelet accumulation in lung graft; assay: graft platelet accumulation (111Indium-labelled platelets); type: in vivo, rat; settings: NTG 0.1 mg/mL in EC, 6 h
Protocol: Graft platelet accumulation was determined using ^111 Indium-labelled platelets, prepared as described^39. Blood (5.0 mL) was taken from a gender/strain matched donor rat and heparinized (2500 units). Platelets were isolated by differential centrifugation, first at 300 g for 5 minutes to obtain platelet-rich plasma, which was then washed 3 times at 2,000 g for 15 minutes in 10 ml of acid-citrate-dextrose-anticoagulant (ACD-A; citric acid 38 mM, sodium citrate 75 mM, glucose 135 mM). The pellet was suspended in 5 mL of ACD-A, centrifuged at 100 g for 5 minutes to remove contaminating red blood cells, and the supernatant collected. ^111 Indium oxyquinoline (70 μL of 1 mCi/mL, Amersham Mediphysics, Arlington Heights, Ill.) was added with gentle shaking for 30 minutes at room temperature. […] One minute following platelet infusion (immediately prior to reperfusion), 0.5 mL of blood was taken from the left atrium to determine blood radioactivity, to ascertain blood platelet concentrations to normalize for variations in blood loss during surgery. Five minutes following reperfusion, the native right pulmonary artery was ligated, the graft was removed 10 minutes thereafter, and ^111 Indium-platelet deposition quantified by gamma counting. Platelet accumulation was expressed as the ratio of graft radioactivity to blood radioactivity normalized to dry weight.

[4] = system: nitric oxide production in heart; assay: direct measurement of coronary vascular and endocardial NO with porphyrinic microsensor; set-up: species or system rat; settings: transplanted hearts
Protocol: Direct measurement of coronary vascular and endocardial nitric oxide synthesis were made with a porphyrinic microsensor^13 using differential pulse voltammetry or amperometry. Rat hearts were explanted and preserved as described above, and studied fresh (no preservation/transplantation) or after hypothermic preservation in lactated Ringer's (LR) solution, heterotopic transplantation, and 10 minutes of reperfusion. The coronary vasculature was flushed free of blood with LR followed by 4 ml of LR supplemented with L-Arg (2 mM) and bradykinin ([…], Sigma), which was recycled (1 ml/min) through the coronary vasculature by flushing down the cross-clamped aortic root. Aliquots of perfusate were immediately transferred to an anaerobic environment for measurements and compared to an aqueous nitric oxide reference. Differential pulse voltammograms were obtained using a sensor (working electrode), saturated calomel electrode reference, and platinum wire-auxiliary electrode, with a pulse amplitude of 40 mV. Endocardial NO was measured by implanting the sensor in the septal endocardium of a freshly explanted or preserved/transplanted heart, and after the baseline stabilization, […] bradykinin was applied and NO release continuously monitored by amperometry at constant potential of 0.63 V.

[5] = 6 h in EC, NTG 0.1 mg/mL where added

| Compound | graft blood flow [1] | graft survival (heart; 24-28 h in UW) [%] | graft survival (heart; 12 h in LR) [%] | concentration of maximal effect (heart; NTG dose-response, 12 h in LR) [mg/mL] | pulmonary artery flushing time (lung; 30 mL at constant pressure during harvest) [s] | recipient survival (lung; 6 h in EC, 30 min, supplements NTG 0.1 mg/mL, hydralazine 0.02 μg/mL) [%] | arterial oxygenation (lung; [5]) [mm Hg] | pulmonary arterial flow (lung; [5]) [mL/min] | pulmonary vascular resistance (lung; [5]) | concentration of maximal beneficial effect (lung; range 0.001 to 0.1 mg/mL) [mg/mL] | nitric oxide synthase activity after transplantation (nitric oxide synthase) | nitric oxide in expired air [2] | graft platelet accumulation [3] | concentration of maximal benefit (heart; 8-Br-cGMP dose-response, 12 h in LR) [mM] | effect on graft preservation (words) (heart; 12 h in LR) | effect on graft preservation (words) (heart; 12 h in LR, listed as 8-bromo-cGMP) | effect on NO levels [4] |
| --- | --- | --- | --- | --- | --- | --- | --- | --- | --- | --- | --- | --- | --- | --- | --- | --- | --- |
| O=[N+]([O-])OCC(CO[N+](=O)[O-])O[N+](=O)[O-] [NTG, nitroglycerin] | enhanced blood flow | 100 | 92 | 0.1 | 86.4 ± 4.9 | 100 | 501±31 | 21.4 ± 2.9 | 1.4±0.1 ×10^3 Woods units | 0.1 | similar | increase nitric oxide in expired air | significant decline in both neutrophil and platelet accumulation |  |  |  |  |
| Nc1nc2c(nc(Br)n2[C@@H]2O[C@@H]3COP(=O)(O)O[C@H]3[C@H]2O)c(=O)[nH]1 [8-Br-cGMP, 8-bromoguanosine-3'5' cyclic monophosphate] | enhanced blood flow |  |  |  |  |  |  |  |  |  | similar |  |  | 0.5 | enhanced cardiac preservation in a dose-dependent manner | enhanced graft survival | did not alter NO levels |
